This passage reports IC50 results from US20240124504A1, “AROMATIC HETEROCYCLIC COMPOUND, AND PHARMACEUTICAL COMPOSITION AND APPLICATION THEREOF” (GT APEIRON THERAPEUTICS LIMITED, priority 2020, published 2024).

Each structure is given as a SMILES string.

The target of test [1] is CDK7/cyclinH/MAT1 complex (Homo sapiens, UniProt P50613). Description: In-vitro enzymatic inhibitory activity testing, CDK7 inhibition assay (Caliper EZ Reader II). Conditions: CDK7/cyclinH/MAT1 6 nM, 180 min at 27° C. In kind it is biochemical. The method in brief:
(§1)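 Enzyme preincubated 10 min with compound, then peptide substrate plus ATP added in 80 mM MES pH 6.5, 10 mM MgCl2 buffer; 180 min at 27 °C, stopped with EDTA.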

The target of the next test is CDK2/cyclinE1 complex (Homo sapiens, UniProt P24941). Description: In-vitro enzymatic inhibitory activity testing, CDK2 inhibition assay (Caliper EZ Reader II). In kind it is biochemical. Conditions: CDK2/cyclinE1 0.5 nM, 180 min at 27° C. The method in brief: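 CDK2/cyclinE1 (0.5 nM) phosphorylated 5-FAM-CDK7tide (2 μM) in MES buffer pH 6.5 with MgCl2, Tween 20 and BSA. Substrate and product were separated electrophoretically on a Caliper EZ Reader II. IC50 values came from nonlinear dose-response fits.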

Another test addresses CDK9/cyclinT1 complex (Homo sapiens, UniProt P50750). Description: In-vitro enzymatic inhibitory activity testing, CDK9 inhibition assay (Caliper EZ Reader II). In kind it is biochemical. As to conditions: CDK9/cyclinT1 8 nM, 180 min at 27° C. The essentials: as §1
Test [2] addresses T1, CDK12 (aa686-1082)/cyclinK complex (Homo sapiens, UniProt Q9NYV4).
T1 construct: A CDK12 (aa686-1082)/cyclinK complex (50 nM)
Description: In-vitro enzymatic inhibitory activity testing, CDK12 inhibition assay (Caliper EZ Reader II). In kind it is biochemical. Conditions: CDK12/cyclinK 50 nM, 180 min at 27° C.; read-out: CDK12 IC50. The essentials: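 Caliper EZ Reader II mobility-shift separation of 5-FAM-CDK9tide substrate (2 μM) from phosphoproduct, using 50 nM CDK12 (aa686-1082)/cyclinK in 80 mM MES pH 6.5, 10 mM MgCl2, 0.01% Tween 20, 50 ug/mL BSA. Compound pre-incubated 10 min with enzyme, then substrate/ATP added for 180 min at 27° C; EDTA stop. IC50 by nonlinear dose-response regression.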

Test [3] deals with human breast cancer cells HCC70. Description: Cell biological activity detection (CyQuant, 72 hours), HCC70. In kind it is cell-based. Conditions: incubation for 72 hours. The method in brief:
(§2)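 A2780 and HCC70 cells seeded at 2000/well in RPMI 1640 + 10% FBS, treated next day with 9-point compound dilutions (top 10 μM, 1:4; 0.2% DMSO) for 72 h at 37 °C. Cell number read by CyQuant Direct nucleic acid stain (ex 488 nm); IC50 from dose–response fit.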

The subject of another test is ovarian cancer A2780. Description: Cell biological activity detection (CyQuant, 72 hours), A2780. In kind it is cell-based, human. Conditions: A2780 cells, incubation for 72 hours. The essentials: as §2

T1 sequence (Q9NYV4 686-1082, species assumed): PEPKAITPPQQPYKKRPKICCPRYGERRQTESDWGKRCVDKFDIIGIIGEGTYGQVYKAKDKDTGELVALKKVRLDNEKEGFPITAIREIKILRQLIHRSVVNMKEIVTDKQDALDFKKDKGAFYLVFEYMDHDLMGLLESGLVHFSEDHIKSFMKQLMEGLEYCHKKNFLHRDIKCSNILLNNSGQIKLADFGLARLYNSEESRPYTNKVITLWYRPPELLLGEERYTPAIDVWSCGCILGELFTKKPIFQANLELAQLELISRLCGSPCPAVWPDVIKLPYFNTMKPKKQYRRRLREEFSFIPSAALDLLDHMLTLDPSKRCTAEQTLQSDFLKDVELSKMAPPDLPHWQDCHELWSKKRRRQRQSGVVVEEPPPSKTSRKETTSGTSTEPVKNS
T1 sequence (O75909 whole entry partner, species assumed, the tested form may be a part): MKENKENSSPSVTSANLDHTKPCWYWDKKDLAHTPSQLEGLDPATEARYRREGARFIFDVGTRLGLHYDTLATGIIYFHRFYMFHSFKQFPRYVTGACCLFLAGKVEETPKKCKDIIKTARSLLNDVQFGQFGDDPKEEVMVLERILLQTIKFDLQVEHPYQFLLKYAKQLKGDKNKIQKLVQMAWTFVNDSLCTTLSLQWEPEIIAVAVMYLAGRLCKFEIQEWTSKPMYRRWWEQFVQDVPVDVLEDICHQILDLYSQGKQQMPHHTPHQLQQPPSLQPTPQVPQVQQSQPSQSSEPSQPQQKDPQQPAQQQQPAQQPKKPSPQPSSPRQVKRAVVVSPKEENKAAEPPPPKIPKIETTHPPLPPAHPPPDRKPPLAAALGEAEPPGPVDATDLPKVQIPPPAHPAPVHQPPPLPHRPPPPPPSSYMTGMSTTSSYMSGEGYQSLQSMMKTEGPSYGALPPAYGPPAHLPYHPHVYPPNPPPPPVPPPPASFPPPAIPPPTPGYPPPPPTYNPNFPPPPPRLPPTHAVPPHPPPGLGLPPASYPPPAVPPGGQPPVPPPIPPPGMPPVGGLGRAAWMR
Sequence of CDK7/cyclinH/MAT1 complex (P50613 whole entry, species assumed): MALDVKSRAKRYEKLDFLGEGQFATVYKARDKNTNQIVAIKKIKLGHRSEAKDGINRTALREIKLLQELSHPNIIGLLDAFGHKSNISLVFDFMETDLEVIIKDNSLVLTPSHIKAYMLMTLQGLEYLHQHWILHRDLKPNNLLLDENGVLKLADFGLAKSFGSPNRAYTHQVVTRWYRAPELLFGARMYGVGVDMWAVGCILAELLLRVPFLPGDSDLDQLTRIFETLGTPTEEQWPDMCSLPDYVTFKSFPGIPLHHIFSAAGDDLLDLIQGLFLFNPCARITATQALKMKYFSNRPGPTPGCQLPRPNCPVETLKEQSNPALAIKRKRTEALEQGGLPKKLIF
Sequence of CDK7/cyclinH/MAT1 complex (P51946 whole entry partner, species assumed): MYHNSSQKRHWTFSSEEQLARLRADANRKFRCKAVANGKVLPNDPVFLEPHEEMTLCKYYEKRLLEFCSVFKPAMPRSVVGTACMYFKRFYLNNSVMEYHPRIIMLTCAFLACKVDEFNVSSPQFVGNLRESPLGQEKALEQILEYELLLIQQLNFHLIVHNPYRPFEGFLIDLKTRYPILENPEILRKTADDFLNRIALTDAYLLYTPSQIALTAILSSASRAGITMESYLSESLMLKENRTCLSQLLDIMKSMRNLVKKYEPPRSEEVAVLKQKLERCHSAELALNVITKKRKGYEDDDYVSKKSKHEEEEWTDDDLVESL
Sequence of CDK7/cyclinH/MAT1 complex (P51948 whole entry partner, species assumed): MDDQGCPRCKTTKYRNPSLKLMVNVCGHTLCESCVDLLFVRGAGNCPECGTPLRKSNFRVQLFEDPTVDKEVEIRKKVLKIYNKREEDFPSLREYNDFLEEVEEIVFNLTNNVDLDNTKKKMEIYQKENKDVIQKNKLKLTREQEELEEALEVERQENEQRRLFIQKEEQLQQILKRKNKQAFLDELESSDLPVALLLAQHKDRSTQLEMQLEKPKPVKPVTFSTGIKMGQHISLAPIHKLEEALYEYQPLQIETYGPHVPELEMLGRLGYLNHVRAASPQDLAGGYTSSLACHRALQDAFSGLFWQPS
Sequence of CDK9/cyclinT1 complex (P50750 whole entry, species assumed, the tested form may be a part): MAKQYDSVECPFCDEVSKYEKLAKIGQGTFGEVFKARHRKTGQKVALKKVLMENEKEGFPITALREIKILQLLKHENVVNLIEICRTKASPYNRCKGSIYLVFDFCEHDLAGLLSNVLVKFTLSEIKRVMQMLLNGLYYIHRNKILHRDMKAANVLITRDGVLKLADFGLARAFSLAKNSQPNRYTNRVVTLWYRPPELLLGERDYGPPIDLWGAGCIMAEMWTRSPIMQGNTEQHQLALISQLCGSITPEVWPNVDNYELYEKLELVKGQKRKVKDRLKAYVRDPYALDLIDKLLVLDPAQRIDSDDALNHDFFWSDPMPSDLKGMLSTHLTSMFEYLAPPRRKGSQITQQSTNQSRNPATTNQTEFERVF
Sequence of CDK9/cyclinT1 complex (O60563 whole entry partner, species assumed, the tested form may be a part): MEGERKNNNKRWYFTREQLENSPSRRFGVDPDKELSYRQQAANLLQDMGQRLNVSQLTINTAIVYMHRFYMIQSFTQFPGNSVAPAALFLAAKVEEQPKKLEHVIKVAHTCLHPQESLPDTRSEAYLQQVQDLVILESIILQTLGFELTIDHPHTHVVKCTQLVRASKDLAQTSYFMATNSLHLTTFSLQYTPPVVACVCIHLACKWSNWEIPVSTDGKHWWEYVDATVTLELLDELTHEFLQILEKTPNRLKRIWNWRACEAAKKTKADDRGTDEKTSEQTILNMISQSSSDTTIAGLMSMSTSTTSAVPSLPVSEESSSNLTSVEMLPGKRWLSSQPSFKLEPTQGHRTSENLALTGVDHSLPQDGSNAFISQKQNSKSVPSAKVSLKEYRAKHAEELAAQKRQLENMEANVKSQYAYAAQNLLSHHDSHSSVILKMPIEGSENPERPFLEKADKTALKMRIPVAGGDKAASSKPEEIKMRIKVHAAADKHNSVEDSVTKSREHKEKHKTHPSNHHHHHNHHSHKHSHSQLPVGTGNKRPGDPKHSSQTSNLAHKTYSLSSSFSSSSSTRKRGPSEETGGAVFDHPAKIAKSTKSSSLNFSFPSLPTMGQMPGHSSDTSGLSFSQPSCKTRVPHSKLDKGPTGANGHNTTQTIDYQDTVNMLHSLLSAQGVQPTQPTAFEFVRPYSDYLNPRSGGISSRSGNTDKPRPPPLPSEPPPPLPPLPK

By IC50 is commonly meant the concentration that gives 50% inhibition. As for `C[C@@H](CO)Nc1ncc(Br)c(-c2c[nH]c3c(P(C)(C)=O)cccc23)n1` [Compound 177, (S)-(3-(5-bromo-2-((1-hydroxypropan-2-yl)amino)pyrimidin-4-yl)-1H-indole-7-yl)dimethylphosphine oxide], the 50% inhibitory concentration (IC50) in test [1] is less than 20 nM; at CDK2/cyclinE1 complex, 0.2 to 5 µM; at CDK9/cyclinT1 complex, 5 to 50 µM; in test [2] it was 5 to 50 µM; in test [3] (Homo sapiens, HCC70, 72 h) it was less than 20 nM; with ovarian cancer A2780 (Homo sapiens, A2780, 72 h), less than 20 nM.

`CP(C)(=O)c1cccc2c(-c3nc(NC4CCC5(CCNC5)C4)ncc3C(F)(F)F)c[nH]c12` (single isomer, unassigned) [Compound 98]: the IC50 in test [1] is less than 20 nM; against CDK2/cyclinE1 complex, 0.2 to 5 µM; on CDK9/cyclinT1 complex, 5 to 50 µM; in test [2] it was 5 to 50 µM; in test [3] (Homo sapiens, HCC70, 72 h), less than 20 nM; in the test with ovarian cancer A2780 (Homo sapiens, A2780, 72 h) it was less than 20 nM.

`CN(C)[C@H]1CC[C@H](Nc2ncc(C(F)(F)F)c(-c3c[nH]c4nc(C#N)ccc34)n2)C1` [Compound 66]: the IC50 was 20 to 200 nM in test [1]; 0.2 to 5 µM on CDK2/cyclinE1 complex; 5 to 50 µM against CDK9/cyclinT1 complex; 0.2 to 5 µM in test [2]; less than 20 nM in test [3] (Homo sapiens, HCC70, 72 h); 20 to 200 nM with ovarian cancer A2780 (Homo sapiens, A2780, 72 h).

For the compound `C[C@@H](O)CNc1ncc(C(F)(F)F)c(-c2c[nH]c3c(P(C)(C)=O)cccc23)n1` [Compound 172, (R)-(3-(2-((2-hydroxypropyl)amino)-5-(trifluoromethyl)pyrimidin-4-yl)-1H-indole-7-yl)dimethylphosphine oxide], the IC50 was 20 to 200 nM in test [1]; 0.2 to 5 µM against CDK2/cyclinE1 complex; more than 50 µM on CDK9/cyclinT1 complex; more than 50 µM in test [2]; 20 to 200 nM in test [3] (Homo sapiens, HCC70, 72 h); 20 to 200 nM in the test on ovarian cancer A2780 (Homo sapiens, A2780, 72 h).

For `CP(C)(=O)c1cccc2c(-c3nc(N[C@H]4CC[C@H](N)C4)ncc3C(F)(F)F)c[nH]c12` [Compound 81], the IC50 in test [1] was less than 20 nM; against CDK2/cyclinE1 complex it was 0.2 to 5 µM; against CDK9/cyclinT1 complex it was 0.2 to 5 µM; in test [2], 0.2 to 5 µM; in test [3] (Homo sapiens, HCC70, 72 h), less than 20 nM; with ovarian cancer A2780 (Homo sapiens, A2780, 72 h) it was less than 20 nM.

With `CP(C)(=O)c1cccc2c(-c3nc(NCC(O)C(F)(F)F)ncc3C(F)(F)F)c[nH]c12` (single isomer, unassigned) [Compound 147], the IC50 is 20 to 200 nM in test [1]; more than 50 µM against CDK2/cyclinE1 complex; more than 50 µM on CDK9/cyclinT1 complex; more than 50 µM in test [2]; 200 to 5000 nM in test [3]; 20 to 200 nM in the test on ovarian cancer A2780.

For the compound `CP(C)(=O)c1cccc2c(-c3nc(NC4CC45CCNC5)ncc3C(F)(F)F)c[nH]c12` (single isomer, unassigned) [Compound 111], the IC50 in test [1] was 20 to 200 nM; against CDK2/cyclinE1 complex it was 5 to 50 µM; on CDK9/cyclinT1 complex it was more than 50 µM; in test [2], more than 50 µM; in test [3], 20 to 200 nM; in the test with ovarian cancer A2780, less than 20 nM.

On to `CP(C)(=O)c1cccc2c(-c3nc(NCC(O)C(F)F)ncc3C(F)(F)F)c[nH]c12` (single isomer, unassigned) [Compound 124], for which the 50% inhibitory concentration (IC50) is less than 20 nM in test [1]; 5 to 50 µM against CDK2/cyclinE1 complex; more than 50 µM against CDK9/cyclinT1 complex; more than 50 µM in test [2]; 20 to 200 nM in test [3] (Homo sapiens, HCC70, 72 h); 20 to 200 nM in the test on ovarian cancer A2780.

In the case of `CP(C)(=O)c1cccc2c(-c3nc(NC4CCC5(CCNC5)C4)ncc3C(F)(F)F)c[nH]c12` (single isomer, unassigned) [Compound 100], the IC50 in test [1] is less than 20 nM; against CDK2/cyclinE1 complex, 0.2 to 5 µM; on CDK9/cyclinT1 complex, 5 to 50 µM; in test [2], 0.2 to 5 µM; in test [3], less than 20 nM; in the test with ovarian cancer A2780 it was less than 20 nM.

As to `CC[C@](C)(CO)Nc1ncc(C(F)(F)F)c(-c2c[nH]c3c(P(C)(C)=O)cccc23)n1` [Compound 161, (R)-(3-(2-((1-hydroxy-2-methylbutan-2-yl)amino)-5-(trifluoromethyl)pyrimidin-4-yl)-1H-indole-7-yl)dimethylphosphine oxide], the IC50 was less than 20 nM in test [1]; 5 to 50 µM at CDK2/cyclinE1 complex; more than 50 µM against CDK9/cyclinT1 complex; more than 50 µM in test [2]; 200 to 5000 nM in test [3] (Homo sapiens, HCC70, 72 h); 200 to 5000 nM in the test with ovarian cancer A2780 (Homo sapiens, A2780, 72 h).

Take `CP(C)(=O)c1cccc2c(-c3nc(NC4CC45CCNC5)ncc3C(F)(F)F)c[nH]c12` (single isomer, unassigned) [Compound 110]: the IC50 in test [1] is less than 20 nM; on CDK2/cyclinE1 complex it was 5 to 50 µM; at CDK9/cyclinT1 complex it was more than 50 µM; in test [2] it was 5 to 50 µM; in test [3], 20 to 200 nM; in the test on ovarian cancer A2780 it was less than 20 nM.

As for `CC1(C)COCC(Nc2ncc(C(F)(F)F)c(-c3c[nH]c4c(P(C)(C)=O)c(C#N)ccc34)n2)CN1` (stereo not drawn) [Compound 76, 3-(2-((3,3-dimethyl-1,4-oxazepan-6-yl)amino)-5-(trifluoromethyl)pyrimidin-4-yl)-7-(dimethylphosphoryl)-1H-indole-6-carbonitrile], the IC50 in test [1] was 20 to 200 nM; against CDK2/cyclinE1 complex, more than 50 µM; at CDK9/cyclinT1 complex it was more than 50 µM; in test [2], more than 50 µM; in test [3] (Homo sapiens, HCC70, 72 h) it was 20 to 200 nM; in the test with ovarian cancer A2780 (Homo sapiens, A2780, 72 h) it was 20 to 200 nM.

For the compound `FC(F)(F)c1cnc(NC2CCCNCC2)nc1-c1c[nH]c2nc(N3CCOCC3)ccc12` (stereo not drawn) [Compound 47, N-(4-(6-morpholinyl-1H-pyrrolo[2,3-b]pyridin-3-yl)-5-(trifluoromethyl)pyrimidin-2-yl)azepan-4-amine], the IC50 in test [1] is 20 to 200 nM; at CDK2/cyclinE1 complex, 5 to 50 µM; at CDK9/cyclinT1 complex, 5 to 50 µM; in test [2], 5 to 50 µM; in test [3] (Homo sapiens, HCC70, 72 h), 200 to 5000 nM; in the test on ovarian cancer A2780 (Homo sapiens, A2780, 72 h) it was 200 to 5000 nM.

With `C[C@H]1COCCN1c1ccc2c(-c3nc(N[C@H]4CC[C@@H](N)C4)ncc3C(F)(F)F)c[nH]c2n1` [Compound 68, (1S,3R)—N1-(4-(6-((S)-3-methylmorpholinyl)-1H-pyrrolo[2,3-b]pyridin-3-yl)-5-(trifluoromethyl)pyrimidin-2-yl)cyclopentan-1,3-diamine], the concentration for half-maximal inhibition (IC50) in test [1] was 20 to 200 nM; at CDK2/cyclinE1 complex, 5 to 50 µM; against CDK9/cyclinT1 complex it was 5 to 50 µM; in test [2] it was 5 to 50 µM; in test [3] (Homo sapiens, HCC70, 72 h), 200 to 5000 nM; with ovarian cancer A2780 (Homo sapiens, A2780, 72 h), 200 to 5000 nM.

On to `CP(C)(=O)c1cccc2c(-c3nc(NC4(CO)CCOC4)ncc3C(F)(F)F)c[nH]c12` (stereo not drawn) [Compound 117, (3-(2-((3-(hydroxymethyl)tetrahydrofuran-3-yl)amino)-5-(trifluoromethyl)pyrimidin-4-yl)-1H-indole-7-yl)dimethylphosphine oxide], for which the IC50 in test [1] is less than 20 nM; on CDK2/cyclinE1 complex, 5 to 50 µM; at CDK9/cyclinT1 complex, more than 50 µM; in test [2], more than 50 µM; in test [3] (Homo sapiens, HCC70, 72 h), less than 20 nM; in the test with ovarian cancer A2780 (Homo sapiens, A2780, 72 h), less than 20 nM.

On to `FC(F)(F)c1cnc(N[C@@H]2CCC23CNC3)nc1-c1c[nH]c2nc(N3CCOCC3)ccc12` [Compound 59, (R)—N-(4-(6-morpholinyl-1H-pyrrolo[2,3-b]pyridin-3-yl)-5-(trifluoromethyl)pyrimidin-2-yl)-2-azaspiro[3.3]heptan-5-amine], for which the IC50 in test [1] is less than 20 nM; on CDK2/cyclinE1 complex it was 5 to 50 µM; against CDK9/cyclinT1 complex, 5 to 50 µM; in test [2], more than 50 µM; in test [3] (Homo sapiens, HCC70, 72 h), 20 to 200 nM; in the test with ovarian cancer A2780 (Homo sapiens, A2780, 72 h), 20 to 200 nM.

Turning to `CP(C)(=O)c1cccc2c(-c3nc(NC4CC45CCNC5)ncc3C(F)(F)F)c[nH]c12` (single isomer, unassigned) [Compound 108], the IC50 in test [1] was less than 20 nM; against CDK2/cyclinE1 complex it was 0.2 to 5 µM; against CDK9/cyclinT1 complex it was 5 to 50 µM; in test [2], 0.2 to 5 µM; in test [3] (Homo sapiens, HCC70, 72 h) it was less than 20 nM; with ovarian cancer A2780 (Homo sapiens, A2780, 72 h) it was less than 20 nM.

Turning to `CC1(C)COC[C@@H](Nc2ncc(C(F)(F)F)c(-c3c[nH]c4nc(C#N)ccc34)n2)CN1` (single isomer, unassigned) [Compound 64], the IC50 is 20 to 200 nM in test [1]; more than 50 µM against CDK2/cyclinE1 complex; more than 50 µM on CDK9/cyclinT1 complex; 5 to 50 µM in test [2]; 200 to 5000 nM in test [3] (Homo sapiens, HCC70, 72 h); 200 to 5000 nM in the test with ovarian cancer A2780 (Homo sapiens, A2780, 72 h).

As for `CP(C)(=O)c1cccc2c(-c3nc(N[C@@H](CO)C4CC4)ncc3C(F)(F)F)c[nH]c12` [Compound 159, (R)-(3-(2-((1-cyclopropyl-2-hydroxyethyl)amino)-5-(trifluoromethyl)pyrimidin-4-yl)-1H-indole-7-yl)dimethylphosphine oxide], the 50% inhibitory concentration (IC50) in test [1] was less than 20 nM; at CDK2/cyclinE1 complex, 5 to 50 µM; at CDK9/cyclinT1 complex, more than 50 µM; in test [2], more than 50 µM; in test [3] (Homo sapiens, HCC70, 72 h) it was 20 to 200 nM; with ovarian cancer A2780 (Homo sapiens, A2780, 72 h), 20 to 200 nM.
